These are literature values, as cited in patent US6498171B2, “Hydroxyomeprazole compositions” (Sepracor Inc., priority 1998, dated 2002).

The subject of series [1] is isolated gastric glands. As to conditions: read-out: IC50, inhibitory effect on aminopyrine uptake.
For series [2] the following is noted: humans.
The conditions of series [3]: poor metabolizers vs extensive metabolizers, serum.

Structures are written as SMILES.

The IC50 is the concentration that inhibits the measured activity by half. Take `COc1ccc2[nH]c([S+]([O-])Cc3ncc(CO)c(OC)c3C)nc2c1` (racemic) [racemic hydroxyomeprazole]: the IC50 in series [1] is 33 µM.
On to `COc1ccc2[nH]c([S+]([O-])Cc3ncc(C)c(OC)c3C)nc2c1` (racemic) [racemic omeprazole, Omeprazole], for which the IC50 in series [1] is 0.48 µM. Further, in series [2], the “Cmax is at (time)” value was 0.5 to 3.5 h. Further, in series [2] (highly variable), the serum half-life was 30 to 60 min.
Regarding `COc1ccc2nc(S(=O)(=O)Cc3ncc(C)c(OC)c3C)[nH]c2c1` [omeprazole sulfone], the “8-hour AUC, poor metabolizers relative to extensive metabolizers” value in series [3] is listed as “more than 10 times higher”.
